Patent US20260374766A1, “METHODS FOR TREATING CANCER” (Antares Therapeutics, Inc., priority 2022, published 2026)
Where two headings read alike, the source gives them in different places.

Columns and labels:
[1] = molecular target: T1, p53 Y220C mutant protein (amino acid residues 94-293) (Homo sapiens, UniProt P04637, Y220C); assay: Surface Plasmon Resonance (SPR) assay, Kd_kinetic; type: binding; conditions: SPR, p53 Y220C, read-out: SPR P53 Y220C KD kinetic
T1 construct: p53 Y220C mutant protein (amino acid residues 94-293)
Experimental: Surface Plasmon Resonance (SPR) Assay Protocol
SPR experiments were performed on a Biacore 8K instrument. […] The running buffer contained 50 mM Tris, pH 7.5, 100 mM NaCl, 1 mM DTT, 0.01% Brij35, 0.05% Tween-20 and 1% DMSO. The assay temperature was maintained at 16 or 20 °C and data were fit into the 1:1 binding model using the Biacore Insight Evaluation software.

p53 Y220C = p53 Y220C (Homo sapiens, UniProt P04637, Y220C); assay: Luciferase Reporter Assay (Luc), p53 response element, NClH1299 cells with inducible p53 Y220C; type: cell-based; conditions: 6 hour; for AC50: read-out: Luc P53 Y220C AC50
Experimental: Luciferase Reporter Assay Protocol
The cells were then used for p53 reporter assay. 5,000 cells were seeded in each well of 384 plate and cultured in 0.5 ug/mL doxycycline (D3072; Sigma) containing medium for 24 hours before compound treatment. After 6 hour of compound treatment, equal volume of One-Glo reagent (E6110; Promega) was added to each well and the plate was incubated for 5 minutes with shaking at room temperature. The luciferase activity was immediately measured with PheraStar microplate reader.

H1299 p53 Y220C = assay: Cell Proliferation Assay (CellTiter-Glo, CTG), H1299 p53 Y220C (NClH1299-inducible p53 Y220C); type: cell-based; conditions: Homo sapiens, NCI-H1299, 120 h, NClH1299-inducible p53 Y220C cells, 5 days
Experimental: Inducible p53 Y220C and R273H constructs (Tet-One inducible expression system; Takara) were stably expressed in NClH1299 cells by lentiviral transduction. NUGC3, A549, BxPC3, T3M4, HuH7, HCC2935, MFE296, NClH1299, NClH1299-inducible p53 Y220C, and NClH1299-inducible p53 R273H cell lines were used for cell proliferation assay. 250-500 cells were seeded in each well of 384 plate and then compounds were dispensed into each well using Echo or Tecan. After 5 days of incubation, equal volume of CellTiter-Glo reagent (G7570; Promega) was added into each well and the plate was incubated at room temperature for 10 minutes with shaking. The luminescent signal was measured by PheraStar microplate reader and IC50 was calculated.

[2] = AC50, luciferase reporter, NClH1299 inducible p53 Y220C
[3] = Emax, luciferase reporter, NClH1299 inducible p53 Y220C
[4] = Emax, NClH1299 cells with inducible p53 Y220C, 10 uM tool compound as positive control
[5] = AC50, NClH1299 cells with inducible p53 Y220C

T1 sequence (P04637 94-293, stated change not applied): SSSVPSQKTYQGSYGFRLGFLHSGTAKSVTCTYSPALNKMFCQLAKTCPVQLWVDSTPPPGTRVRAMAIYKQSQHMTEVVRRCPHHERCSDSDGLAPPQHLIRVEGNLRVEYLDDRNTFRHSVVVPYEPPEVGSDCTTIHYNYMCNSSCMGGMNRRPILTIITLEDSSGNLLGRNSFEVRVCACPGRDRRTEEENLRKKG

SMILES | Kd [1] [nM] | AC50 (p53 Y220C; [2]) [nM] | Emax (p53 Y220C; [3]) [%] | IC50 (H1299 p53 Y220C; CellTiter-Glo) [nM] | Emax (p53 Y220C; [4]) [%] | AC50 (p53 Y220C; [5]) [nM] | also measured
[2H]C([2H])([2H])Oc1cc(S(C)(=O)=O)ccc1NCC#Cc1cc2c(N[C@@H]3CCN(C(F)(F)F)C[C@@H]3F)cccn2c1SC(F)(F)F [Example 412] | < 10 | < 750 | > 90 | – | – | – | –
COc1cc(C(=O)NCC2CN(C)C2)ccc1NCC#Cc1nc2c(N[C@@H]3CCOC[C@@H]3F)cccn2c1SC(F)(F)F [Example 227] | < 10 | > 3000 | 70 to 80 | > 3000 | – | – | –
CNC(=O)c1ccc(NCC#Cc2nc3c(N[C@H]4C[C@H]5COC[C@H](N5)[C@H]4F)cccn3c2SC(F)(F)F)c(OC)c1 [Example 281] | – | – | 80 to 90 | 1500 to 3000 | – | – | –
CNC(=O)c1ccc(NCC#Cc2nc3c(N[C@@H]4CCN(C)C[C@@H]4F)cccn3c2C(F)(F)C(F)(F)F)c(OC)c1 [Example 30, 4-{[3-(8-{[(3S,4R)-3-fluoro-1-methylpiperidin-4-yl]amino}-3-(1,1,2,2,2-pentafluoroethyl)imidazo[1,2-a]pyridin-2-yl)prop-2-yn-1-yl]amino}-3-methoxy-N-methylbenzamide] | – | – | – | – | – | – | Kd ([1]; kinetic KD): 10 to 100 nM; Emax (p53 Y220C; luciferase reporter, NClH1299 inducible p53 Y220C, 10 uM tool compound as positive control): > 90%; AC50 (p53 Y220C; luciferase reporter, NClH1299 inducible p53 Y220C): > 3000 nM
[2H]C([2H])([2H])Oc1cc(C(=O)NC)ccc1NCC#Cc1nc2c(N[C@@H]3CCN(C)C[C@@H]3F)cccn2c1SC(F)(F)F [Example 505, 4-{[3-(8-{[(3S,4R)-3-fluoro-1-methylpiperidin-4-yl]amino}-3-[(trifluoromethyl)sulfanyl]imidazo[1,2-a]pyridin-2-yl)prop-2-yn-1-yl]amino}-3-(2H3)methoxy-N-methylbenzamide] | – | – | – | – | > 90 | – | IC50 (H1299 p53 Y220C): < 750 nM
CNC(=O)c1cc(NCC#Cc2cc3c(N[C@@H]4CCN(C)C[C@@H]4F)cccn3c2SC(F)(F)F)n2ncnc2c1 [Example 361] | – | > 3000 | < 70 | > 3000 | – | – | –
[2H]C([2H])([2H])Oc1cc(S(C)(=O)=O)ccc1NCC#Cc1cc2c(N[C@@H]3CCN(C)C[C@@H]3F)cccn2c1SC(F)(F)F [Example 485] | < 10 | – | – | – | > 90 | < 750 | –
COc1cc2c(cc1NCC#Cc1nc3c(N[C@@H]4CCN(C)C[C@@H]4F)cccn3c1CC(F)(F)F)CNC2=O [Example 95, 5-{[3-(8-{[(3S,4R)-3-fluoro-1-methylpiperidin-4-yl]amino}-3-(2,2,2-trifluoroethyl)imidazo[1,2-a]pyridin-2-yl)prop-2-yn-1-yl]amino}-6-methoxy-2,3-dihydroisoindol-1-one] | – | – | – | – | – | – | Kd ([1]; kinetic KD): < 10 nM
CNC(=O)c1ccc(OCC2(O)CC2)c(NCC#Cc2cc3c(N[C@@H]4CCN(C)C[C@@H]4F)cccn3c2SC(F)(F)F)c1 [Example 467] | < 10 | – | – | – | > 90 | < 750 | IC50 (H1299 p53 Y220C): < 750 nM
CNC(=O)c1ccc(NCC#Cc2nc3c(N[C@@H]4C[C@@H]5COC[C@@H](N5)[C@@H]4F)cccn3c2SC(F)(F)F)c(OC)c1 (relative stereo) [Example 329] | – | – | 80 to 90 | < 750 | – | – | –
CNC(=O)c1ccc(O[C@H]2C[C@@H](O)C2)c(NCC#Cc2cc3c(N[C@@H]4CCN(C)C[C@@H]4F)cccn3c2SC(F)(F)F)c1 [Example 413, 3-{[3-(8-{[(3S,4R)-3-fluoro-1-methylpiperidin-4-yl]amino}-3-[(trifluoromethyl)sulfanyl]indolizin-2-yl)prop-2-yn-1-yl]amino}-N-methyl-4-[(1s,3s)-3-hydroxycyclobutoxy]benzamide] | < 10 | < 750 | > 90 | < 750 | – | – | –
CNC(=O)c1ccc(OCCN(C)C)c(NCC#Cc2nc3c(N[C@@H]4CCOC[C@@H]4F)cccn3c2SC(F)(F)F)c1 [Example 229] | < 10 | 750 to 1500 | 70 to 80 | 750 to 1500 | – | – | –
CNC(=O)c1ccc(NCC#Cc2cc3c(N[C@@H]4CCN(C)C[C@@H]4F)cccn3c2SC(F)(F)F)c(O[C@H]2C[C@H](O)C2)c1 [Example 398] | < 10 | < 750 | 80 to 90 | – | – | – | –
CNC(=O)c1cc(NCC#Cc2nn3c(N[C@@H]4CCN(C)C[C@@H]4F)cccc3c2SC(F)(F)F)c(OC)cn1 [Example 271] | < 10 | < 750 | 80 to 90 | < 750 | – | – | –
[2H]C(C)(O)CNC(=O)c1ccc(NCC#Cc2cc3c(N[C@@H]4CCN(C)C[C@@H]4F)cccn3c2SC(F)(F)F)c(OC)c1 (single isomer, unassigned) [Example 487, 4-{[3-(8-{[(3S,4R)-3-fluoro-1-methylpiperidin-4-yl]amino}-3-[(trifluoromethyl)sulfanyl]indolizin-2-yl)prop-2-yn-1-yl]amino}-N-[(2R*)-2-hydroxy(2-^2H)propyl]-3-methoxybenzamide] | < 10 | – | – | – | > 90 | < 750 | IC50 (H1299 p53 Y220C): < 750 nM
COc1cc(S(C)(=N)=O)ccc1NCC#Cc1cc2c(N[C@@H]3CCN(C)C[C@@H]3F)cccn2c1SC(F)(F)F (some centres unmarked) [Example 374] | < 10 | < 750 | 80 to 90 | < 750 | – | – | –
[2H]C([2H])([2H])Oc1ccc(C(=O)NC)cc1NCC#Cc1nc2c(N[C@@H]3CCN(C)C[C@@H]3F)cccn2c1SC(F)(F)F [Example 507] | < 10 | – | – | – | > 90 | < 750 | IC50 (H1299 p53 Y220C): < 750 nM
[2H]C([2H])([2H])N1CC[C@@H](Nc2cccn3c(SC(F)(F)F)c(C#CCNc4ccc(S(C)(=O)=O)cc4OC)cc23)[C@@H](F)C1 [Example 501] | – | – | – | – | > 90 | – | IC50 (H1299 p53 Y220C): < 750 nM
[2H]C([2H])([2H])Oc1cc(S(C)(=O)=O)ccc1NCC#Cc1nc2c(N[C@@H]3CCN(C)C[C@@H]3F)nccn2c1SC(F)(F)F [Example 490] | < 10 | – | – | – | > 90 | < 750 | –
C[C@H](O)CNC(=O)c1ccc(OC2COC2)c(NCC#Cc2cc3c(N[C@@H]4CCN(C)C[C@@H]4F)cccn3c2SC(F)(F)F)c1 [Example 400] | < 10 | < 750 | 80 to 90 | < 750 | – | – | –
CNC(=O)c1ccc(NCC#Cc2cc3c(N[C@@H]4CCN(C)C[C@@H]4F)cccn3c2SC(F)(F)F)c(O[C@H]2C[C@@H](O)C2)c1 [Example 474] | < 10 | – | – | – | > 90 | < 750 | –
[2H]C([2H])([2H])Oc1cc(S(C)(=O)=O)ccc1NCC#Cc1nn2c(N[C@@H]3CCN(C)C[C@@H]3F)cccc2c1SC(F)(F)F [Example 461] | < 10 | – | – | – | > 90 | < 750 | –
[2H]C([2H])([2H])Oc1cc(C(=O)NC)ccc1NCC#Cc1nn2c(N[C@@H]3CCN(C)C[C@@H]3F)cccc2c1SC(F)(F)F [Example 500] | < 10 | – | – | – | > 90 | < 750 | IC50 (H1299 p53 Y220C): < 750 nM
CNC(=O)c1cc(NCC#Cc2cc3c(N[C@@H]4CCN(C)C[C@@H]4F)cccn3c2SC(F)(F)F)c2ncnn2c1 [Example 494] | < 10 | – | – | – | > 90 | < 750 | IC50 (H1299 p53 Y220C): < 750 nM
[2H]C([2H])([2H])Oc1cc(S(C)(=O)=O)ccc1NCC#Cc1nc2c(N[C@@H]3CCN(C)C[C@@H]3C)cccn2c1SC(F)(F)F [Example 454] | < 10 | – | – | – | > 90 | < 750 | –
